Results published in publication PMC4086519, “Anti-Trichophyton Activity of Protocatechuates and Their Synergism with Fluconazole” (Evidence-based Complementary and Alternative Medicine : eCAM, 2014).
Converted amounts (≈) assume the structure as drawn. Where two headings read alike, the source gives them in different places.

Legend:
Format in all cases: cell-based
[1] = test system: Trichophyton mentagrophytes; assay: Broth microdilution MIC (CLSI M38-A2, modified); conditions: 35°C, 7 days
Procedure: (§1) To evaluate its antifungal activity, […] of dermatophytes were tested: two clinical strains of Trichophyton rubrum (Tr1 and Tr2), Trichophyton rubrum ATCC MYA 3108, two clinical strains of Trichophyton mentagrophytes (Tm1 and Tm2), and Trichophyton mentagrophytes ATCC 40131 (Tm3). The microorganisms were obtained from the collection of the Clinical Mycology Laboratory of the Department of Clinical Analyses at the School of Pharmaceutical Sciences of Universidade Estadual Paulista (UNESP). The strains were cultivated on Sabouraud dextrose agar (Difco, BD Biosciences) and incubated at 28°C for 7-15 days. For all experiments, the strains were cultivated on Potato Dextrose Agar (Difco, BD Biosciences) and incubated at 28°C as described above or until sporulation. The dilution of the synthetic compounds was performed with DMSO (Synth, Diadema, Sao Paulo, Brazil) as described by Scorzoni et al.. […] The antifungal drugs were diluted according to the CLSI […]-A2 document. Stock solutions of Fluconazole (Sigma-Aldrich, St. Louis, MO, USA) were prepared, considering its power. Serial twofold dilutions were prepared according to the recommendations of Zhang and collaborators, with some modifications. The antifungal activity tests were performed using the broth microdilution method as described in […]-A2, a document produced by the Clinical and Laboratory Standards Institute (CLSI, 2008), with modifications. The medium used was RPMI 1640 with L-glutamine (Sigma-Aldrich, St. Louis, MO, USA) buffered to pH 7.0 with 0.165 M morpholinepropanesulfonic acid (MOPS) (Sigma-Aldrich, St. Louis, MO, USA), supplemented with 2% glucose. […] The suspension of conidia was then transferred to small sterile test tubes where they remained for 40 minutes to separate the microconidia, which were lighter and therefore present in the supernatant. […] These suspensions were diluted in RPMI 1640 (Sigma-Aldrich, St. […] Positive (100 μL of RPMI medium with 100 μL of inoculum) and negative (200 μL of RPMI) controls were included in all experiments. The plates were incubated with agitation at 35°C for 7 days. The MIC reading was performed by spectrophotometry at 490 nm.

[2] = test system: Trichophyton rubrum; assay: Broth microdilution MIC (CLSI M38-A2, modified); conditions: 35°C, 7 days
Procedure: as §1

[3] = test system: Trichophyton mentagrophytes; assay: Minimum fungicide concentration (MFC)
Procedure: (§2) A qualitative analysis of the fungal viability was performed by transferring a portion of the wells to a plate with Sabouraud (Difco, BD Biosciences) medium and incubating it at 35°C for the time determined for each fungal agent. […] A visual reading was performed to confirm the death or growth inhibition provided by fluconazole and the sixteen semisynthetic substances derived from protocatechuic acid.

[4] = test system: Trichophyton rubrum; assay: Minimum fungicide concentration (MFC)
Procedure: as §2

[5] = test system: NOK (oral human keratinocyte) cell lines; assay: Sulphorhodamine B cytotoxicity assay; conditions: NOK cells, 24 hours
Procedure: The cytotoxicity of sixteen semisynthetic compounds derived from protocatechuic acid was assessed using a sulphorhodamine B assay in NOK (oral human keratinocyte) cell lines obtained from the American Type Culture Collection (Manassas, VA, USA). The strains were maintained in bottles appropriate for cell culture with keratinocyte serum free medium (Gibco, Life Technologies) and incubated in standard conditions of 37°C and 5% CO2. Cell concentrations ranging from 2.5 to 5.0 × 10^4 cells/mL were used for the formation of cell monolayers. The concentrations of pure substances were kept in contact with the cells for 24 hours. After the incubation period, the cells were treated with the sulphorhodamine B reagent (Sigma-Aldrich, St. Louis, MO, USA) as previously described by Skehan et al., with some modifications.

[6] = test system: Trichophyton mentagrophytes; assay: Checkerboard synergism assay with fluconazole; conditions: for MIC, substances alone / MIC: checkerboard, 168 hours; for MIC: Trichophyton mentagrophytes, read-out: MIC, substances alone
Procedure: (§3) The drug activity was assessed using a checkerboard method derived from a standardised procedure established by the National Committee for Clinical Laboratory Standards ([…]-A2). Briefly, the test was performed on the same medium used for susceptibility testing. Volumes of 50 μL of each drug in a concentration four times the final concentration were dispensed in 96-well plates ([…], Switzerland). To each well, 100 μL of the fungal suspension was added to produce a final concentration of 5.0 × 10^3 CFU/mL. As a negative control, we used 200 μL of RPMI, while as a positive control, we used 100 μL of RPMI medium with 100 μL of inoculum. The plates were incubated at 35°C, and the reading was completed after 168 hours. We conducted visual and spectrophotometric readings at 490 nm. To determine the effect of combinatorial fractions, we calculated the fractional inhibitory concentration (FIC). The FIC was calculated by taking the MIC of the substance in combination/MIC of the substance alone. The sum of the fractional inhibitory concentration (FIC) of each substance consists of the fractional inhibitory concentration index: (the MIC of drug A in combination/the MIC of drug A alone) + (the MIC of drug B in combination/the MIC of drug B alone).

[7] = test system: Trichophyton rubrum; assay: Checkerboard synergism assay with fluconazole
Procedure: as §3

[8] = Tm3, T. mentagrophytes ATCC 40131
[9] = Tr1, T. rubrum clinical isolate
[10] = Tr2, T. rubrum clinical isolate

Structure (SMILES) | MIC ([1]; Tm1, clinical isolate) [µg/mL] | MIC ([1]; Tm2, clinical isolate) [µg/mL] | MIC [1, 8] [µg/mL] | MIC [2, 9] [µg/mL] | MIC [2, 10] [µg/mL] | MIC ([2]; Tr3, T. rubrum ATCC MYA 3108) [µg/mL] | MFC ([3]; Tm1, clinical isolate) [µg/mL] | MFC ([3]; Tm2, clinical isolate) [µg/mL] | MFC [3, 8] [µg/mL] | MFC [4, 9] [µg/mL] | MFC [4, 10] [µg/mL] | MFC ([4]; Tr3, T. rubrum ATCC MYA 3108) [µg/mL] | Cytotoxicity IC50 [5] [µg/mL] | MIC of the protocatechuate, substances combined [6] [µg/mL] | association type (in words) [6] | MIC, substances alone ([6]; Tm1) [µg/mL] | MIC, substances alone ([6]; Tm3 (ATCC 40131)) [µg/mL] | FIC index [7] | association type (in words) [7] | MIC, substances alone ([7]; Tr1, checkerboard, 168 hours) [µg/mL] | further results
CCCCCCOC(=O)c1ccc(O)c(O)c1 [Protocatechuate hexyl, hexyl protocatechuate] | 1.95 (≈ 8.18 µM) | 3.9 (≈ 16.4 µM) | 3.90 (≈ 16.4 µM) | 3.9 (≈ 16.4 µM) | 1.95 (≈ 8.18 µM) | 3.9 (≈ 16.4 µM) | 3.90 (≈ 16.4 µM) | 3.9 (≈ 16.4 µM) | 7.80 (≈ 32.7 µM) | 3.9 (≈ 16.4 µM) | 3.90 (≈ 16.4 µM) | 3.9 (≈ 16.4 µM) | 66.5 | 0.03 | additive | 1.9 | 3.9 | 1.1 | indifferent | 3.9 | FIC index [6]: 0.72; MIC of the protocatechuate, substances combined [7]: 0.48 µg/mL; reduction in the MIC of the protocatechuate [7]: 8.125 times
CCCCCCCOC(=O)c1ccc(O)c(O)c1 [Protocatechuate heptyl, protocatechuate heptyl] | 3.9 (≈ 15.5 µM) | 0.97 (≈ 3.84 µM) | 3.9 (≈ 15.5 µM) | 1.95 (≈ 7.73 µM) | 1.95 (≈ 7.73 µM) | 1.95 (≈ 7.73 µM) | 3.9 (≈ 15.5 µM) | 0.97 (≈ 3.84 µM) | 3.9 (≈ 15.5 µM) | 1.95 (≈ 7.73 µM) | 1.95 (≈ 7.73 µM) | 1.95 (≈ 7.73 µM) | 78.1 | 0.03 | synergistic | 3.9 | 3.9 | 1.0 | additive | 1.9 | reduction in the MIC of fluconazole [6]: fourfold; FIC index ([6]; listed as 9): 0.48; reduction in the MIC of fluconazole ([6]; listed as 9): four-
CCCCCOC(=O)c1ccc(O)c(O)c1 [Protocatechuate pentyl, pentyl protocatechuate] | 3.90 (≈ 17.4 µM) | 7.8 (≈ 34.8 µM) | 7.8 (≈ 34.8 µM) | 7.8 (≈ 34.8 µM) | 7.8 (≈ 34.8 µM) | 7.8 (≈ 34.8 µM) | 15.6 (≈ 69.6 µM) | 7.8 (≈ 34.8 µM) | 7.8 (≈ 34.8 µM) | 7.8 (≈ 34.8 µM) | 7.8 (≈ 34.8 µM) | 7.8 (≈ 34.8 µM) | 57.0 | 0.03 | additive | 3.9 | 7.8 | 1.0 | additive | 7.8 | FIC index [6]: 1.0; MIC of fluconazole, substances combined [6]: 0.5 µg/mL; reduction in the MIC of the protocatechuate [6]: 130 fold; MIC of fluconazole, substances combined [7]: 0.12 µg/mL; MIC of the protocatechuate, substances combined [7]: 7.8 µg/mL; reduction in the MIC of fluconazole [7]: 16.66 times
CCCCCCCCCOC(=O)c1ccc(O)c(O)c1 [Protocatechuate nonyl, nonyl protocatechuate] | 3.9 (≈ 13.9 µM) | 3.9 (≈ 13.9 µM) | 3.9 (≈ 13.9 µM) | 1.95 (≈ 6.96 µM) | 3.9 (≈ 13.9 µM) | 1.95 (≈ 6.96 µM) | 3.9 (≈ 13.9 µM) | 3.9 (≈ 13.9 µM) | 3.9 (≈ 13.9 µM) | 1.95 (≈ 6.96 µM) | 3.9 (≈ 13.9 µM) | 3.90 (≈ 13.9 µM) | 52.1 | 0.03 | additive | 3.9 | 3.9 | 1.0 | additive | 1.9 | FIC index [6]: 1.0; MIC of fluconazole, substances combined [6]: 0.5 µg/mL; reduction in the MIC of the protocatechuate [6]: 130 fold; MIC of the protocatechuate, substances combined [7]: 0.03 µg/mL; reduction in the MIC of the protocatechuate [7]: 63.33 times
OC(Cn1cncn1)(Cn1cncn1)c1ccc(F)cc1F [FLU, Fluconazole] |  |  |  |  |  |  |  |  |  |  |  |  |  |  |  |  |  |  |  |  | MIC ([6]; ATCC40131, Tm3 (ATCC 40131)): 0.5 µg/mL; MIC ([6]; Tm1): 1 µg/mL; MIC ([7]; Trichophyton rubrum, Tr1, checkerboard, 168 hours, read-out: MIC, substances alone): 2 µg/mL
